For data set [1], the target named is T1, full-length B-Catenin (Uniprot ID P35222) (Homo sapiens, UniProt P35222).
T1 construct: 65 nM full-length B-Catenin (Uniprot ID P35222)
T1 sequence (P35222 1-781): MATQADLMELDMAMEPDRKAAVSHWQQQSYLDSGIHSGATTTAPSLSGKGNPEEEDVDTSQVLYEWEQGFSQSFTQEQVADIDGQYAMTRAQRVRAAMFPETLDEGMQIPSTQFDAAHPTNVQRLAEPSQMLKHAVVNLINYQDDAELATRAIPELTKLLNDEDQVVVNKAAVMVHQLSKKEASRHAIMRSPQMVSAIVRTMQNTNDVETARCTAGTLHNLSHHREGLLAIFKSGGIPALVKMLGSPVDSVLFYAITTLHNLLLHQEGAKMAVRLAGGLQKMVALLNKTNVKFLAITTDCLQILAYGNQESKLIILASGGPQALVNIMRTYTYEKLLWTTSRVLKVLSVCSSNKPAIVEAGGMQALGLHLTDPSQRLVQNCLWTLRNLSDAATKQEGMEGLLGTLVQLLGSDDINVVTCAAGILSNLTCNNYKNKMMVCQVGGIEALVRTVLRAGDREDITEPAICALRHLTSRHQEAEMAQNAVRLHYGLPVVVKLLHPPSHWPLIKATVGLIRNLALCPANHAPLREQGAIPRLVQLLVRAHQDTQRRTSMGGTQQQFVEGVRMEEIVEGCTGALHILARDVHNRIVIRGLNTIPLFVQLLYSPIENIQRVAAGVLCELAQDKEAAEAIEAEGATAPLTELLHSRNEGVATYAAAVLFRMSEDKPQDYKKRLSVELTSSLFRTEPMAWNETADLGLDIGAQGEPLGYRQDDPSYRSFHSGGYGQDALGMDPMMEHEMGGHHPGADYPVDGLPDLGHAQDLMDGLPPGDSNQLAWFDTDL
In words: Alphascreen binding assay (beta-catenin / biotin-TCF4 10-53). In short, it runs like this: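 AlphaScreen (Ni-chelate beads) competition in 50 mM Tris pH 8.0, 250 mM NaCl with detergents and 0.1% BSA. Peptide titrated 10 uM–5 nM against 65 nM human β-catenin bound to 10 nM biotinylated TCF4 10-53, 15 min then 60 min with beads, both at 20 °C; 1:1 Hill-slope fit.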
A general note: In Alpha technology, singlet oxygen from a donor bead excites a nearby acceptor bead.

A short description of another data set: CHI Log D procedure. The format is physicochemical. The note with it: for CHI Log D: pH 7.4; for chromatographic logD: pH 7.4, CHI Log D.

For orientation: EC50 means the concentration needed to bring the measured effect to its halfway point. Molecule `CC(=O)N1CCC[C@]12CC=CCCCC1(CCCC=CCCCCCC[C@@](C)(C(=O)N[C@@H](Cc3ccccc3)C(=O)N[C@@H](Cc3c[nH]c4ccccc34)C(=O)N[C@@H](CCC(N)=O)C(N)=O)NC(=O)[C@H](C(C)C)NC(=O)[C@H](Cc3ccccc3)NC(=O)[C@H](C)NC(=O)[C@H](C)NC(=O)[C@H](CCC(=O)O)NC(=O)[C@H](CCc3ccccc3)NC1=O)NC(=O)[C@H](C)NC(=O)[C@H](CC(=O)O)NC2=O` (stereo partly drawn) [I-197, Ac-PL3-Asp-Ala-B5-hPhe-Glu-Ala-Ala-Phe-Val-S8-Phe-Trp-Gln-NH2] came in with an EC50 in data set [1] of 6150 nM. Besides, in the data set “CHI Log D procedure”, the “CHI Log D” value was 3.809.
For `CC(=O)N1CCC[C@]12CC=CCCCC1(CCCC=CCCCCCC[C@@](C)(C(=O)N[C@@H](Cc3ccccc3)C(=O)N[C@@H](Cc3c[nH]c4ccccc34)C(=O)N[C@@H](CCC(N)=O)C(N)=O)NC(=O)[C@H](C(C)C)NC(=O)[C@H](Cc3ccccc3)NC(=O)[C@H](C)NC(=O)[C@H](C)NC(=O)[C@H](CCC(=O)O)NC(=O)[C@H](CC(=O)O)NC1=O)NC(=O)[C@H](C)NC(=O)[C@H](CC(N)=O)NC2=O` (stereo partly drawn) [I-199, Ac-PL3-Asn-Ala-B5-Asp-Glu-Ala-Ala-Phe-Val-S8-Phe-Trp-Gln-NH2] the same measures were 796 nM and 2.262.
For `CC(=O)N1CCC[C@]12CC=CCCCC1(CCCC=CCCCCCC[C@@](C)(C(=O)N[C@@H](Cc3ccccc3)C(=O)N[C@@H](Cc3c[nH]c4ccccc34)C(=O)N[C@@H](CCC(N)=O)C(N)=O)NC(=O)[C@H](C(C)C)NC(=O)[C@H](Cc3ccccc3)NC(=O)[C@H](C)NC(=O)[C@H](C)NC(=O)[C@H](CCC(=O)O)NC(=O)[C@H](CC(=O)O)NC1=O)NC(=O)[C@H](C)NC(=O)[C@H](CC(N)=O)NC2=O` (stereo partly drawn) [I-200, Ac-PL3-Asn-Ala-B5-Asp-Glu-Ala-Ala-Phe-Val-S8-Phe-Trp-Gln-NH2] the same measures were 173 nM and 2.278.
In general, chromatographic logD refers to a lipophilicity value derived from retention on a column. In data set [1], `CC(=O)N1CCC[C@]12CC=CCCCC1(CCCC=CCCCCCC[C@@](C)(C(=O)N[C@@H](Cc3ccccc3)C(=O)N[C@@H](Cc3c[nH]c4ccccc34)C(=O)N[C@@H](CCC(N)=O)C(N)=O)NC(=O)[C@H](C(C)C)NC(=O)[C@H](Cc3ccccc3)NC(=O)[C@H](C)NC(=O)[C@H](C)NC(=O)[C@H](CCC(=O)O)NC(=O)[C@H](CC(=O)O)NC1=O)NC(=O)[C@H](C)NC(=O)[C@H](Cc1ccccc1)NC2=O` (stereo partly drawn) [I-201, Ac-PL3-Phe-Ala-B5-Asp-Glu-Ala-Ala-Phe-Val-S8-Phe-Trp-Gln-NH2] came in with an EC50 of 6160 nM. In the data set “CHI Log D procedure”, this molecule displayed a chromatographic logD of 2.94.
For `CC(=O)N1CCC[C@]12CC=CCCCC1(CCCC=CCCCCCC[C@@](C)(C(=O)N[C@@H](Cc3ccccc3)C(=O)N[C@@H](Cc3c[nH]c4ccccc34)C(=O)N[C@@H](CCC(N)=O)C(N)=O)NC(=O)[C@H](C(C)C)NC(=O)[C@H](Cc3ccccc3)NC(=O)[C@H](C)NC(=O)[C@H](C)NC(=O)[C@H](CCC(=O)O)NC(=O)[C@H](Cc3c[nH]cn3)NC1=O)NC(=O)[C@H](C)NC(=O)[C@H](CC(=O)O)NC2=O` (stereo partly drawn) [I-206, Ac-PL3-Asp-Ala-B5-His-Glu-Ala-Ala-Phe-Val-S8-Phe-Trp-Gln-NH2] the same measures were 2140 nM and 2.41.
Consider `CC(=O)N1CCC[C@]12CC=CCCCC1(CCCC=CCCCCCC[C@@](C)(C(=O)N[C@@H](Cc3ccccc3)C(=O)N[C@@H](Cc3c[nH]c4ccccc34)C(=O)N[C@@H](CCC(N)=O)C(N)=O)NC(=O)[C@H](C(C)C)NC(=O)[C@H](Cc3cc(F)c(F)c(F)c3)NC(=O)[C@H](C)NC(=O)[C@H](C)NC(=O)[C@H](CCC(=O)O)NC(=O)[C@H](CC(=O)O)NC1=O)NC(=O)[C@H](C)NC(=O)[C@H](CC(=O)O)NC2=O` (stereo partly drawn) [I-209, Ac-PL3-Asp-Ala-B5-Asp-Glu-Ala-Ala-345FF-Val-S8-Phe-Trp-Gln-NH2], for which the EC50 in data set [1] is 1400 nM. In addition, the “CHI Log D” value in “CHI Log D procedure” is recorded as 2.088.
Take `CC(=O)N1CCC[C@]12CC=CCCCC1(CCCC=CCCCCCC[C@@](C)(C(=O)N[C@@H](Cc3ccccc3)C(=O)N[C@@H](Cc3c[nH]c4ccccc34)C(=O)N[C@@H](CCC(N)=O)C(N)=O)NC(=O)[C@H](C(C)C)NC(=O)[C@H](Cc3cc(F)c(F)c(F)c3)NC(=O)[C@H](C)NC(=O)[C@H](C)NC(=O)[C@H](CCC(=O)O)NC(=O)[C@H](CC(=O)O)NC1=O)NC(=O)[C@H](C)NC(=O)[C@H](CC(=O)O)NC2=O` (stereo partly drawn) [I-210, Ac-PL3-Asp-Ala-B5-Asp-Glu-Ala-Ala-345FF-Val-S8-Phe-Trp-Gln-NH2]: in data set [1], the concentration for a half-maximal effect (EC50) is 1400 nM. Further, the “CHI Log D” value in the data set “CHI Log D procedure” worked out at 2.088.
In turn, `CC(=O)N1CCC[C@]12CC=CCCCC1(CCCC=CCCCCCC[C@@](C)(C(=O)N[C@@H](Cc3ccccc3)C(=O)N[C@@H](Cc3c[nH]c4ccccc34)C(=O)N[C@@H](CCC(N)=O)C(N)=O)NC(=O)[C@H](C(C)C)NC(=O)[C@H](Cc3cc(F)c(F)c(F)c3)NC(=O)[C@H](C)NC(=O)[C@H](C)NC(=O)[C@H](CCC(=O)O)NC(=O)[C@H](CC(=O)O)NC1=O)NC(=O)[C@H](C)NC(=O)[C@H](CC(=O)O)NC2=O` (stereo partly drawn) [I-211, Ac-PL3-Asp-Ala-B5-Asp-Glu-Ala-Ala-345FF-Val-S8-Phe-Trp-Gln-NH2] showed an EC50 in data set [1] of 367 nM. Moreover, the “CHI Log D” value in the data set “CHI Log D procedure” was found to be 2.101.
For `CC(=O)N1CCC[C@]12CC=CCCCC1(CCCC=CCCCCCC[C@@](C)(C(=O)N[C@@H](Cc3ccccc3)C(=O)N[C@@H](Cc3c[nH]c4ccccc34)C(=O)N[C@@H](CCC(N)=O)C(N)=O)NC(=O)[C@H](C(C)C)NC(=O)[C@H](Cc3cc(F)c(F)c(F)c3)NC(=O)[C@H](C)NC(=O)[C@H](C)NC(=O)[C@H](CCC(=O)O)NC(=O)[C@H](CC(=O)O)NC1=O)NC(=O)[C@H](C)NC(=O)[C@H](CC(=O)O)NC2=O` (stereo partly drawn) [I-212, Ac-PL3-Asp-Ala-B5-Asp-Glu-Ala-Ala-345FF-Val-S8-Phe-Trp-Gln-NH2] the same measures were 367 nM and 2.101.
In data set [1], `CC(=O)N[C@@H](Cc1ccccc1)C(=O)N[C@@H](CC(=O)O)C(=O)N[C@@H](C)C(=O)N[C@]1(C)CCCCCCC=CCOC(=O)N2CC[C@@](C(=O)N[C@@H](Cc3ccccc3)C(=O)N[C@@H](Cc3c[nH]c4ccccc34)C(=O)N[C@@H](CCC(N)=O)C(N)=O)(C2)NC(=O)[C@H]([C@@H](C)O)NC(=O)[C@H](Cc2ccccc2)NC(=O)[C@H](C)NC(=O)[C@H](C)NC(=O)[C@H](CC(=O)O)NC(=O)[C@H](CC(=O)O)NC1=O` [I-221, Ac-Phe-Asp-Ala-R8-Asp-Asp-Ala-Ala-Phe-Thr-PyrS-Phe-Trp-Gln-NH2] yielded a 50% effective concentration (EC50) of 6580 nM. Besides, in “CHI Log D procedure”, the “CHI Log D” value is recorded as 1.34.
For `CC(=O)N[C@@H](Cc1ccccc1)C(=O)N[C@@H](CC(=O)O)C(=O)N[C@@H](C)C(=O)N[C@]1(C)CCCCCCC=CCOC(=O)N2CC[C@@](C(=O)N[C@@H](Cc3ccccc3)C(=O)N[C@@H](Cc3c[nH]c4ccccc34)C(=O)N[C@@H](CCC(N)=O)C(N)=O)(C2)NC(=O)[C@H]([C@@H](C)O)NC(=O)[C@H](Cc2ccccc2)NC(=O)[C@H](C)NC(=O)[C@H](C)NC(=O)[C@H](CC(=O)O)NC(=O)[C@H](CC(=O)O)NC1=O` [I-222, Ac-Phe-Asp-Ala-R8-Asp-Asp-Ala-Ala-Phe-Thr-PyrS-Phe-Trp-Gln-NH2] the same measures were 6580 nM and 1.34.
